Here are results for five compounds from PMC10111423, “Antimalarial Imidazopyridines Incorporating an Intramolecular Hydrogen Bonding Motif: Medicinal Chemistry and Mechanistic Studies” (ACS Infectious Diseases, 2023).

One data set in a line: Solubility. Format: physicochemical. As to conditions: pH 6.5, aqueous buffer. From the text:
Table 1 In Vitro Antiplasmodium Activity, Cytotoxicity, BHIA, and Solubility | column: Solubility pH 6.5, μM

Data set [1] is described as follows: In vitro microsomal stability, mouse liver microsomes. Format: in vitro ADME. As to conditions: 1 μM, 0.4 mg/mL protein. As to the method: (§1) Xenotech, Kansas, USA), suspended in 0.1 M phosphate buffer (pH 7.4). (Details of this assay are described in the Supporting Information.) page 20: fold to attain six assay concentrations of 100-0.001 μg/mL. […] was used as the reference compound in this assay. The highest concentration of DMSO, which was used as the negative control, had no measurable effect on cell viability. After 44 hours of exposure of the cells to the test compounds, a solution of MTT was added. This was followed by an additional 4 hours of incubation at 37 °C. The assay plates were centrifuged, medium removed, and DMSO was added to the crystals. The amount of formazan was ascertained by measuring the absorbance at 540 nm. GraphPad Prism software was then used to generate IC50 values through a non-linear dose-response curve analysis. β-Hematin Inhibition Assay 20 mM stock solutions of controls and test compounds were made in DMSO. A solution […] was added to every well in columns 1-11 of a 96-well plate. 140 μL of water and 40 μL of 305.5 μM NP-40 were added to column 12 to mediate the formation of beta-hematin. 20 μL of test compounds (20 mM) were added to column 12 and 100 μL of this solution serially diluted to column 2, leaving column 1 blank (0 μM of test compound). 178.8 μL aliquot of hematin stock was suspended in 20 ml of a 1 M acetate buffer at pH 4.9. 100 μL of this hematin suspension was then added into each well, and the plates were incubated for ±5 hrs at 37°C. Subsequently, 32 μL of pyridine solution (20% water, 20% acetone, 10% 2M HEPES buffer at pH 7.4 and 50% pyridine) and 60 μL of acetone were added to all wells. The absorbances of plate wells were recorded at 405 nm on a SpectraMax plate reader. Sigmoidal dose-response curves with variable slopes were fitted to the absorbance data using GraphPad Prism to obtain the IC50 values for each compound. In vitro Microsomal Stability Assay The in vitro microsomal stability assay was performed in duplicate in a 96-well micro titre […] individually in human (pool of 50, mixed gender), rat (pool of 711, male Sprague Dawley) and mouse (pool of 1634, male CD1) liver microsomes (final protein concentration of 0.4 mg/mL; Xenotech, Kansas, USA), suspended in 0.1M phosphate buffer (pH 7.4). Incubations were S20 page 21: started by addition of NADPH (1 mM) as cofactor and shaken for 30 minutes at 37 °C. The reactions were then quenched by adding 300 μL of ice-cold acetonitrile containing internal standard (carbamazepine, 0.0236 μg/mL) and centrifuged. The supernatant was transferred to a fresh 96-well plate and analysed by LC-MS/MS (Agilent Rapid Resolution HPLC, AB SCIEX 4500 MS). The relative loss of parent compound over time was monitored and plots (concentration vs. time) were prepared per compound to determine the first order rate constant for compound depletion. This was in turn used to calculate half-life, in vitro intrinsic clearance and in vivo hepatic extraction ratio.6 Metabolite Identification Studies […] microsomes (MLM, male mouse CD1, Lot No. 1510043, Xenotech), magnesium chloride (5 mM) and NADPH (1 mM) in sodium phosphate buffer (100 mM, pH 7.4) for 60 minutes while shaking. The samples were then prepared by ice-cold acetonitrile precipitation, centrifuged, and filtered for LC-MS/MS analysis. […] Fluorescence Live-cell Microscopy […] […]
(Microsomes from liver hold many membrane-bound enzymes, among them those of drug oxidation.)

Data set [2] is described as follows: In vitro microsomal stability, rat liver microsomes. Format: in vitro ADME. As to conditions: 1 μM, 0.4 mg/mL protein. As to the method:
as §1

Data set [3] is described as follows: In vitro microsomal stability, human liver microsomes. Format: in vitro ADME. As to conditions: 1 μM, 0.4 mg/mL protein. The protocol: as §1
Data set [4] is described as follows: Metabolite identification in mouse liver microsomes. Format: in vitro ADME. As to conditions: NADPH-dependent. As to the method:
started by addition of NADPH (1 mM) as cofactor and shaken for 30 minutes at 37 °C. The
reactions were then quenched by adding 300 µL of ice-cold acetonitrile containing internal
standard (carbamazepine, 0.0236 µg/mL) and centrifuged. The supernatant was transferred to
a fresh 96-well plate and analysed by LC-MS/MS (Agilent Rapid Resolution HPLC, AB
SCIEX 4500 MS). The relative loss of parent compound over time was monitored and plots
(concentration vs. time) were prepared per compound to determine the first order rate constant
for compound depletion. This was in turn used to calculate half-life, in vitro intrinsic clearance
and in vivo hepatic extraction ratio.6
Metabolite Identification Studies
The test compound (10 µM) was incubated at 37 °C in a solution containing 1 mg/ml
microsomes (MLM, male mouse CD1, Lot No. 1510043, Xenotech), magnesium chloride (5
mM) and NADPH (1 mM) in sodium phosphate buffer (100 mM, pH 7.4) for 60 minutes while
shaking. The samples were then prepared by ice-cold acetonitrile precipitation, centrifuged,
and filtered for LC-MS/MS analysis.
Controls containing all the sample constituents (not incubated), and in which NADPH,
microsomes or the test compound were individually excluded were also prepared and handled
similarly to the test sample. Verapamil (10 µM) was incubated concomitantly as a positive
Fluorescence Live-cell Microscopy […]

In brackets after ≈: the same amount, converted by molar mass.

As a reminder, the solubility is the dissolved amount per volume that the medium holds. Regarding `CCN(CCNc1cc2[nH]c(C3CCCC3)nc2cn1)Cc1ccc(Cl)cc1O` [Compound 1, 5-Chloro-2-(((2-((2-cyclopentyl-1H-imidazo[4,5-c]pyridin-6-yl)amino)ethyl)(ethyl)amino)methyl)phenol], in “Solubility”, the concentration in solution (solubility) came to 15 µM (≈ 6.21 µg/mL). In addition, the “Microsomal EH (hepatic extraction ratio), mouse” value in data set [1] is on record as 0.88. In data set [2], the “Microsomal EH (hepatic extraction ratio), rat” value was 0.75. Besides, the “Microsomal EH (hepatic extraction ratio), human” value in data set [3] is given as 0.60.

For `CCN(CCNc1cc2[nH]c(C3CC3)nc2cn1)Cc1ccc(Cl)cc1O` [Compound 5, 5-Chloro-2-(((2-((2-cyclopropyl-1H-imidazo[4,5-c]pyridin-6-yl)amino)ethyl)(ethyl)amino)methyl)phenol], in “Solubility”, the solubility is 25 µM (≈ 9.65 µg/mL). Also, the “Microsomal EH (hepatic extraction ratio), mouse” value in data set [1] is 0.81. Also, the “Microsomal EH (hepatic extraction ratio), rat” value in data set [2] was 0.73. The “Microsomal EH (hepatic extraction ratio), human” value in data set [3] is given as 0.54.

Turning to `CCN(CCNc1cc2[nH]c(C3(C)CC3)nc2cn1)Cc1ccc(Cl)cc1O` [Compound 6, 5-Chloro-2-((ethyl(2-((2-(1-methylcyclopropyl)-1H-imidazo[4,5-c]pyridin-6-yl)amino)ethyl)amino)methyl)phenol], the solubility in “Solubility” stood at 200 µM (≈ 80 µg/mL). Moreover, the “Microsomal EH (hepatic extraction ratio), mouse” value in data set [1] is 0.90. In addition, the “Microsomal EH (hepatic extraction ratio), rat” value in data set [2] was found to be 0.73. Also, in data set [3], the “Microsomal EH (hepatic extraction ratio), human” value stood at 0.71.

`CCN(CCNc1cc2[nH]c(-c3cccc(C(F)(F)F)c3)nc2cn1)Cc1ccc(Cl)cc1O` [Compound 14, 5-Chloro-2-((ethyl(2-((2-(3-(trifluoromethyl)phenyl)-1H-imidazo[4,5-c]pyridin-6-yl)amino)ethyl)amino)methyl)phenol] returned a solubility in “Solubility” of 65 µM (≈ 31.8 µg/mL). Moreover, the “Microsomal EH (hepatic extraction ratio), mouse” value in data set [1] is on record as 0.81. Further, in data set [2], the “Microsomal EH (hepatic extraction ratio), rat” value came to 0.70. Moreover, in data set [3], the “Microsomal EH (hepatic extraction ratio), human” value was found to be 0.85. The “Number of metabolites identified” value in data set [4] was determined as 4.

Turning to `CCN(CCNc1cc2[nH]c(-c3ccc(C(F)(F)F)nc3)nc2cn1)Cc1ccc(Cl)cc1O` [Compound 19, 5-Chloro-2-((ethyl(2-((2-(6-(trifluoromethyl)pyridin-3-yl)-1H-imidazo[4,5-c]pyridin-6-yl)amino)ethyl)amino)methyl)phenol], the solubility in “Solubility” turned out to be 140 µM (≈ 68.7 µg/mL). For the same compound, the “Microsomal EH (hepatic extraction ratio), mouse” value in data set [1] is 0.84. Further, the “Microsomal EH (hepatic extraction ratio), rat” value in data set [2] was determined as 0.78. The “Microsomal EH (hepatic extraction ratio), human” value in data set [3] is reported as 0.80.
